# Laboratory results: US9108926B2, “Disubstituted 5-fluoro-pyrimidines” (Bayer Intellectual Property GmbH, priority 2011, dated 2015)
# Where two headings read alike, the source gives them in different places.
# How the values were obtained:
# NCI-H460 cells = test: Proliferation assay, NCI-H460; type: cell-based; conditions: Homo sapiens, read-out: Inhibition of NCI-H460 cell proliferation IC50
# Procedure: (§1) After 24 hours, the cells of one plate (zero-point plate) were stained with crystal violet (see below), while the medium of the other plates was replaced by fresh culture medium (200 μl), to which the test substances were added in various concentrations (0 μM, as well as in the range of 0.001-10 μM; the final concentration of the solvent dimethyl sulfoxide was 0.5%). The cells were incubated for 4 days in the presence of test substances. Cell proliferation was determined by staining the cells with crystal violet: the cells were fixed by adding 20 μl/measuring point of an 11% glutaric aldehyde solution for 15 minutes at room temperature. After three washing cycles of the fixed cells with water, the plates were dried at room temperature. The cells were stained by adding 100 μl/measuring point of a 0.1% crystal violet solution (pH 3.0). After three washing cycles of the stained cells with water, the plates were dried at room temperature. The dye was dissolved by adding 100 μl/measuring point of a 10% acetic acid solution. […] The change of cell number, in percent, was calculated by normalization of the measured values to the extinction values of the zero-point plate (=0%) and the extinction of the untreated (0 μm) cells (=100%).
# Caco-2 cells = test: Proliferation assay, Caco-2; type: cell-based; conditions: Homo sapiens, read-out: Inhibition of Caco-2 cell proliferation IC50
# Procedure: as §1
# B16F10 cells = test: Proliferation assay, B16F10; type: cell-based; conditions: Mus musculus, B16-F10, 96 h, read-out: Inhibition of B16F10 cell proliferation IC50
# Procedure: as §1
# HeLa-MaTu-ADR cells = test: Proliferation assay, HeLa-MaTu-ADR; type: cell-based; conditions: Homo sapiens, 96 h, read-out: Inhibition of HeLa-MaTu-ADR cell proliferation IC50
# Procedure: as §1
# CDK2/CycE = CDK2/CycE (Homo sapiens, UniProt P24941); test: CDK2/CycE kinase assay (TR-FRET, Method 2)
# Excerpt: CDK2/CycE-inhibitory activity of compounds of the present invention was quantified employing the CDK2/CycE TR-FRET assay as described in the following paragraphs:
# Recombinant fusion proteins of GST and human CDK2 and of GST and human CycE, expressed in insect cells (Sf9) and purified by Glutathion-Sepharose affinity chromatography, were purchased from ProQinase GmbH (Freiburg, Germany). As substrate for the kinase reaction biotinylated peptide biotin-Ttds-[sequence] (C-terminus in amid form) was used which can be purchased e.g. form the company JERINI Peptide Technologies (Berlin, Germany).
# For the assay 50 nl of a 100 fold concentrated solution of the test compound in DMSO was pipetted into a black low volume 384 well microtiter plate (Greiner Bio-One, Frickenhausen, Germany), 2 μl of a solution of CDK2/CycE in aqueous assay buffer [50 mM Tris/HCl pH 8.0, 10 mM MgCl2, 1.0 mM dithiothreitol, 0.1 mM sodium ortho-vanadate, 0.01% (v/v) Nonidet-P40 (Sigma)] were added and the mixture was incubated for 15 min at 22° C. to allow pre-binding of the test compounds to the enzyme before the start of the kinase reaction. Then the kinase reaction was started by the addition of 3 μl of a solution of adenosine-tri-phosphate (ATP, 16.7 μM=>final conc. in the 5 μl assay volume is 10 μM) and substrate (1.25 μM=>final conc. in the 5 μl assay volume is 0.75 μM) in assay buffer and the resulting mixture was incubated for a reaction time of 25 min at 22° C. The concentration of CDK2/CycE was adjusted depending of the activity of the enzyme lot and was chosen appropriate to have the assay in the linear range, typical concentrations were in the range of 130 ng/mL. The reaction was stopped by the addition of 5 μl of a solution of TR-FRET detection reagents (0.2 μM streptavidine-XL665 [Cisbio Bioassays, Codolet, France] and 1 nM anti-RB(pSer807/pSer811)-antibody from BD Pharmingen [#558389] and 1.2 nM LANCE EU-W1024 labeled anti-mouse IgG antibody [Perkin-Elmer, product no. AD0077]) in an aqueous EDTA-solution (100 mM EDTA, 0.2% (w/v) bovine serum albumin in 100 mM HEPES/NaOH pH 7.0).
# The resulting mixture was incubated 1 h at 22° C. to allow the formation of complex between the phosphorylated biotinylated peptide and the detection reagents. Subsequently the amount of phosphorylated substrate was evaluated by measurement of the resonance energy transfer from the Eu-chelate to the streptavidine-XL. Therefore, the fluorescence emissions at 620 nm and 665 nm after excitation at 350 nm was measured in a TR-FRET reader, e.g. a Rubystar (BMG Labtechnologies, Offenburg, Germany) or a Viewlux (Perkin-Elmer). The ratio of the emissions at 665 nm and at 622 nm was taken as the measure for the amount of phosphorylated substrate.
# HeLa cells = test: Proliferation assay, HeLa; type: cell-based; conditions: Homo sapiens, 96 h, read-out: Inhibition of HeLa cell proliferation IC50
# Procedure: as §1
# DU145 cells = test: Proliferation assay, DU145; type: cell-based; conditions: Homo sapiens, DU-145, 96 h, read-out: Inhibition of DU145 cell proliferation IC50
# Procedure: as §1
# Caco-2 permeation assay = type: in vitro ADME; conditions: human, pH 7.2, Caco-2, test compound 2 μM
# Procedure: 4. Caco-2 Permeation Assay:
# Caco-2 cells (purchased from DSMZ Braunschweig, Germany) were seeded at a density of 4.5×10^4 cells per well on 24 well insert plates, 0.4 μm pore size, and grown for 15 days in DMEM medium supplemented with 10% fetal bovine serum, 1% GlutaMAX (100×, GIBCO), 100 U/mL penicillin, 100 μg/mL streptomycin (GIBCO) and 1% non essential amino acids (100×). Cells were maintained at 37° C. in a humified 5% CO2 atmosphere. Medium was changed every 2-3 day. Before running the permeation assay, the culture medium was replaced by a FCS-free hepes-carbonate transport buffer (pH 7.2). For assessment of monolayer integrity the transepithelial electrical resistance (TEER) was measured. Test compounds were predissolved in DMSO and added either to the apical or basolateral compartment in final concentration of 2 μM in transport buffer. Before and after 2 h incubation at 37° C. samples were taken from both compartments. Analysis of compound content was done after precipitation with methanol by LC/MS/MS analysis. Permeability (Papp) was calculated in the apical to basolateral (A→B) and basolateral to apical (B→A) directions. […] The efflux ratio basolateral (B) to apical (A) was calculated by dividing the Papp B−A by the Papp A−B. In addition the compound recovery was calculated. The following reference compounds were used for the classification of the permeability class: Antipyrine, Pyrazosin, Verapamil, Fluvastatin, Cimetidine, Ranitidine, Atenolol, Sulfasalazine.
# CDK9/CycT1 [1] = molecular target: T1, CDK9/CycT1 (Homo sapiens, UniProt P50750); test: CDK9/CycT1 kinase assay (TR-FRET, Method 1a)
# T1 sequence (P50750 whole entry): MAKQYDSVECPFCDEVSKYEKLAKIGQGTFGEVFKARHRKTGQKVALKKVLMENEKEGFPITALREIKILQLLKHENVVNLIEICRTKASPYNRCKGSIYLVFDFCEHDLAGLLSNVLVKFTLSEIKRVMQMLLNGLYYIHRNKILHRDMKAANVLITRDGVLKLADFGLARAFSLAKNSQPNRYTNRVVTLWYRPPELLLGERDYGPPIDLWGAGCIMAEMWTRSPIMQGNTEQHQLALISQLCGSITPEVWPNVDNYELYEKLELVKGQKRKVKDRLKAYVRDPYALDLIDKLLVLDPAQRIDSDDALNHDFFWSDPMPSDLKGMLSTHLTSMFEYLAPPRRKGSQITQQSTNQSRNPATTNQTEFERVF
# T1 sequence (O60563 whole entry partner): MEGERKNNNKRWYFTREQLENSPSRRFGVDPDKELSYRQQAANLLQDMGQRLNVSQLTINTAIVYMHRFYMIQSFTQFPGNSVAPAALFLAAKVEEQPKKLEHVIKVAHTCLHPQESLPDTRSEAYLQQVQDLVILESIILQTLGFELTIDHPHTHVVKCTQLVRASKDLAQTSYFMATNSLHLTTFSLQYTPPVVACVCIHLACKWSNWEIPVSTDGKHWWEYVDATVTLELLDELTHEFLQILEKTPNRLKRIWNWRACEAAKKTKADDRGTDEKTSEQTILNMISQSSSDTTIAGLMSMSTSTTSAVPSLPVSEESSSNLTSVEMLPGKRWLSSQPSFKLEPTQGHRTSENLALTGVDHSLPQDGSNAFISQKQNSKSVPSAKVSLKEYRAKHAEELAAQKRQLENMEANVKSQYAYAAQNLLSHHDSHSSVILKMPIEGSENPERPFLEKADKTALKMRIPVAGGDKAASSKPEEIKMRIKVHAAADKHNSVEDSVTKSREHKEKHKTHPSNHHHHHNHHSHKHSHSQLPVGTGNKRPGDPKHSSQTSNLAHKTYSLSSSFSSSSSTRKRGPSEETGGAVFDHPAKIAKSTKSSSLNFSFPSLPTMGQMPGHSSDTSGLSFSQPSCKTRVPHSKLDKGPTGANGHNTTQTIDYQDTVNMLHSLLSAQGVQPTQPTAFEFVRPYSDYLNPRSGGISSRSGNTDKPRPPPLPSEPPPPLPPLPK
# Excerpt: CDK9/CycT1-inhibitory activity of compounds of the present invention was quantified employing the CDK9/CycT1 TR-FRET assay as described in the following paragraphs:
# Recombinant full-length His-tagged human CDK9 and CycT1, expressed in insect cells and purified by Ni-NTA affinity chromatography, were purchased from Invitrogen (Cat. No PV4131). As substrate for the kinase reaction biotinylated peptide biotin-Ttds-[sequence] (C-terminus in amid form) was used which can be purchased e.g. form the company JERINI Peptide Technologies (Berlin, Germany).
# For the assay 50 nl of a 100 fold concentrated solution of the test compound in DMSO was pipetted into a black low volume 384 well microtiter plate (Greiner Bio-One, Frickenhausen, Germany), 2 μl of a solution of CDK9/CycT1 in aqueous assay buffer [50 mM Tris/HCl pH 8.0, 10 mM MgCl2, 1.0 mM dithiothreitol, 0.1 mM sodium ortho-vanadate, 0.01% (v/v) Nonidet-P40 (Sigma)] were added and the mixture was incubated for 15 min at 22° C. to allow pre-binding of the test compounds to the enzyme before the start of the kinase reaction. Then the kinase reaction was started by the addition of 3 μl of a solution of adenosine-tri-phosphate (ATP, 16.7 μM=>final conc. in the 5 μl assay volume is 10 μM) and substrate (1.67 μM=>final conc. in the 5 μl assay volume is 1 μM) in assay buffer and the resulting mixture was incubated for a reaction time of 25 min at 22° C. The concentration of CDK9/CycT1 was adjusted depending of the activity of the enzyme lot and was chosen appropriate to have the assay in the linear range, typical concentrations were in the range of 1 μg/mL. The reaction was stopped by the addition of 5 μl of a solution of TR-FRET detection reagents (0.2 μM streptavidine-XL665 [Cisbio Bioassays, Codolet, France] and 1 nM anti-RB(pSer807/pSer811)-antibody from BD Pharmingen [#558389] and 1.2 nM LANCE EU-W1024 labeled anti-mouse IgG antibody [Perkin-Elmer, product no. AD0077]) in an aqueous EDTA-solution (100 mM EDTA, 0.2% (w/v) bovine serum albumin in 100 mM HEPES/NaOH pH 7.0).
# (§2) The resulting mixture was incubated 1 h at 22° C. to allow the formation of complex between the phosphorylated biotinylated peptide and the detection reagents. Subsequently the amount of phosphorylated substrate was evaluated by measurement of the resonance energy transfer from the Eu-chelate to the streptavidine-XL. Therefore, the fluorescence emissions at 620 nm and 665 nm after excitation at 350 nm was measured in a HTRF reader, e.g. a Rubystar (BMG Labtechnologies, Offenburg, Germany) or a Viewlux (Perkin-Elmer). The ratio of the emissions at 665 nm and at 622 nm was taken as the measure for the amount of phosphorylated substrate.
# CDK9/CycT1 [2] = molecular target: T1, CDK9/CycT1
# Procedure: CDK9/CycT1 High ATP Kinase Assay
# CDK9/CycT1-inhibitory activity of compounds of the present invention at a high ATP concentration after preincubation of enzyme and test compounds was quantified employing the CDK9/CycT1 TR-FRET assay as described in the following paragraphs.
# Recombinant full-length His-tagged human CDK9 and CycT1, expressed in insect cells and purified by Ni-NTA affinity chromatography, were purchase from Invitrogen (Cat. No PV4131). As substrate for the kinase reaction biotinylated peptide biotin-Ttds-[sequence]
# For the assay 50 nl of a 100 fold concentrated solution of the test compound in DMSO was pipetted into a black low volume 384 well microtiter plate (Greiner Bio-One, Frickenhausen, Germany), 2 μl of a solution of CDK9/CycT1 in aqueous assay buffer [50 mM Tris/HCl pH 8.0, 10 mM MgCl2, 1.0 mM dithiothreitol, 0.1 mM sodium ortho-vanadate, 0.01% (v/v) Nonidet-P40 (Sigma)] were added and the mixture was incubated for 15 min at 22° C. to allow pre-binding of the test compounds to the enzyme before the start of the kinase reaction. Then the kinase reaction was started by the addition of 3 μl of a solution of adenosine-tri-phosphate (ATP, 3.3 mM=>final conc. in the 5 μl assay volume is 2 mM) and substrate (1.67 μM=>final conc. in the 5 μl assay volume is 1 μM) in assay buffer and the resulting mixture was incubated for a reaction time of 25 min at 22° C. The concentration of CDK9/CycT1 was adjusted depending of the activity of the enzyme lot and was chosen appropriate to have the assay in the linear range, typical concentrations were in the range of 0.5 μg/mL. The reaction was stopped by the addition of 5 μl of a solution of TR-FRET detection reagents (0.2 μM streptavidine-XL665 [Cisbio Bioassays, Codolet, France] and 1 nM anti-RB(pSer807/pSer811)-antibody from BD Pharmingen [#558389] and 1.2 nM LANCE EU-W1024 labeled anti-mouse IgG antibody [Perkin-Elmer, product no. AD0077]) in an aqueous EDTA-solution (100 mM EDTA, 0.2% (w/v) bovine serum albumin in 100 mM HEPES/NaOH pH 7.0).
# as §2
# [3] = 96 h, NCI-H460, 4 days, crystal violet
# [4] = 96 h, Caco-2, 4 days, crystal violet
# [5] = HeLa-MaTu-ADR, 4 days, crystal violet
SMILES,IC50 (NCI-H460 cells; [3]),IC50 (Caco-2 cells; [4]),"IC50 (B16F10 cells; B16F10, 4 days, crystal violet)",IC50 (HeLa-MaTu-ADR cells; [5]),IC50 (CDK2/CycE),"IC50 (HeLa cells; 4 days, crystal violet)","IC50 (DU145 cells; DU145, 4 days, crystal violet)",IC50 (CDK9/CycT1 [1]),IC50 (CDK9/CycT1 [2]),other results
"COc1cc(F)ccc1-c1nc(Nc2cccc(CS(C)(=O)=O)c2)ncc1F [Example 1, 5-Fluoro-4-(4-fluoro-2-methoxyphenyl)-N-{3 [(methylsulfonyl)methyl]phenyl}pyrimidin-2-amine]",330 nM,260 nM,310 nM,170 nM,300 nM,290 nM,290 nM,,,"Papp A→B at 2 h, 2 μM (Caco-2 permeation assay; apical to basolateral, read-out: Papp A-B (Mari)): 20.6 ×10⁻⁶ cm/s; Papp B→A at 2 h, 2 μM (Caco-2 permeation assay; basolateral to apical, read-out: Papp B-A (Mari)): 8.5 ×10⁻⁶ cm/s"
"COc1cc(F)ccc1-c1nc(Nc2cccc(CS(=O)(=O)CCO)c2)ncc1F [Example 8, 2-[(3-{[5-Fluoro-4-(4-fluoro-2-methoxyphenyl)pyrimidin-2-yl]amino}benzyl)sulfonyl]ethanol]",710 nM,710 nM,950 nM,380 nM,310 nM,1000 nM,640 nM,9 nM,103 nM,
"COc1cc(F)ccc1-c1nc(Nc2cccc(CS(=O)(=O)Cc3ccccc3)c2)ncc1F [Example 15, N-{3-[(Benzylsulfonyl)methyl]phenyl}-5-fluoro-4-(4-fluoro-2-methoxyphenyl)-pyrimidin-2-amine]",,,,,1100 nM,1800 nM,,10 nM,83 nM,
"CS(=O)(=O)Cc1cc(F)cc(Nc2ncc(F)c(-c3ccc(F)cc3OCc3ccccc3)n2)c1 [Example 11, 4-[2-(Benzyloxy)-4-fluorophenyl]-5-fluoro-N-{3-fluoro-5-[(methylsulfonyl)methyl]phenyl}pyrimidin-2-amine]",,,,,1100 nM,1000 nM,,,,
"CS(=O)(=O)Cc1cccc(Nc2ncc(F)c(-c3ccc(F)cc3OCc3cccnc3)n2)c1 [Example 16, 5-Fluoro-4-[4-fluoro-2-(pyridin-3-ylmethoxy)phenyl]-N-{3-[(methylsulfonyl)methyl]phenyl}pyrimidin-2-amine]",320 nM,440 nM,410 nM,350 nM,820 nM,380 nM,300 nM,8 nM,19 nM,
"COc1cc(F)ccc1-c1nc(Nc2cccc(CS(=O)(=O)C3CC3)c2)ncc1F [Example 14, N-{3-[(Cyclopropylsulfonyl)methyl]phenyl}-5-fluoro-4-(4-fluoro-2-methoxyphenyl)pyrimidin-2-amine]",,,,,780 nM,670 nM,,8 nM,40 nM,
"CC(C)(C)S(=O)(=O)Cc1cccc(Nc2ncc(F)c(-c3ccc(F)cc3OCc3ccccc3)n2)c1 [Example 4, 4-[2-(Benzyloxy)-4-fluorophenyl]-N-{3-[(tert-butylsulfonyl)methyl]phenyl}-5-fluoropyrimidin-2-amine]",,,,,3100 nM,,,29 nM,80 nM,
"O=S(=O)(Cc1cccc(Nc2ncc(F)c(-c3ccc(F)cc3OCc3ccccc3)n2)c1)C1CCCCC1 [Example 6, 4-[2-(Benzyloxy)-4-fluorophenyl]-N-{3-[(cyclohexylsulfonyl)methyl]phenyl}-5-fluoropyrimidin-2-amine]",,,,,≥ 20000 nM,,,51 nM,98 nM,
"CS(=O)(=O)Cc1cccc(Nc2ncc(F)c(-c3cccc4c3OCCC4)n2)c1 [Example 9, 4-(3,4-Dihydro-2H-chromen-8-yl)-5-fluoro-N-{3-[(methylsulfonyl)methyl]phenyl}pyrimidin-2-amine]",340 nM,270 nM,340 nM,200 nM,300 nM,360 nM,320 nM,,,
"O=S(=O)(Cc1cccc(Nc2ncc(F)c(-c3cccc4c3OCCC4)n2)c1)C1CC1 [Example 10, N-{3-[(Cyclopropylsulfonyl)methyl]phenyl}-4-(3,4-dihydro-2H-chromen-8-yl)-5-fluoropyrimidin-2-amine]",,,,,210 nM,1100 nM,,,,
"COCCS(=O)(=O)Cc1cccc(Nc2ncc(F)c(-c3ccc(F)cc3OCc3ccccc3)n2)c1 [Example 3, 4-[2-(Benzyloxy)-4-fluorophenyl]-5-fluoro-N-(3-{[(2-methoxyethyl)sulfonyl]methyl}phenyl)pyrimidin-2-amine]",1200 nM,1100 nM,1200 nM,1000 nM,1200 nM,1200 nM,1300 nM,10 nM,10 nM,
"CS(=O)(=O)Cc1cccc(Nc2ncc(F)c(-c3cccc4c3OCCO4)n2)c1 [Example 13, 4-(2,3-Dihydro-1,4-benzodioxin-5-yl)-5-fluoro-N-{3-[(methylsulfonyl)methyl]phenyl}pyrimidin-2-amine]",,,,,120 nM,,,6 nM,5 nM,"IC50 (NCI-H460 cells; NCI-H460, 96 h): 340 nM; IC50 (Caco-2 cells; Caco-2, 96 h): 220 nM; IC50 (B16F10 cells): 510 nM; IC50 (HeLa-MaTu-ADR cells): 190 nM; IC50 (HeLa cells): 210 nM; IC50 (DU145 cells): 310 nM"
"CC(C)S(=O)(=O)Cc1cccc(Nc2ncc(F)c(-c3ccc(F)cc3OCc3ccccc3)n2)c1 [Example 5, 4-[2-(Benzyloxy)-4-fluorophenyl]-5-fluoro-N-{3-[(propan-2-ylsulfonyl)methyl]phenyl}pyrimidin-2-amine]",,,,,1600 nM,,,14 nM,20 nM,
"CS(=O)(=O)Cc1cccc(Nc2ncc(F)c(-c3ccc(F)cc3OCc3ccccc3)n2)c1 [Example 2, 4-[2-(Benzyloxy)-4-fluorophenyl]-5-fluoro-N-{3-[(methylsulfonyl)methyl]phenyl}pyrimidin-2-amine]",370 nM,490 nM,820 nM,300 nM,840 nM,350 nM,410 nM,8 nM,8 nM,
"COc1cc(F)ccc1-c1nc(Nc2cccc(CS(=O)(=O)C(C)C)c2)ncc1F [Example 7, 5-Fluoro-4-(4-fluoro-2-methoxyphenyl)-N-{3-[(propan-2-ylsulfonyl)methyl]phenyl}pyrimidin-2-amine]",,,,,510 nM,1100 nM,,,,
